Experimental findings from patent US10525058B2, “Urea derivative or pharmacologically acceptable salt thereof” (KYORIN PHARMACEUTICAL CO., LTD., priority 2015, dated 2020) are described below.

The pEC50 is −log10 of the EC50, conventionally taken in molar units.

pEC50: −log10 of the molar value.

The target of test [1] is T1, human FPRL1 (Homo sapiens, UniProt P25090).
T1 construct: expressed in transfected cells; host or cells: HEK293 (JCRB9068, NIBIO), transient co-transfection with pCMV-script vectors
T1 sequence (P25090 1-351): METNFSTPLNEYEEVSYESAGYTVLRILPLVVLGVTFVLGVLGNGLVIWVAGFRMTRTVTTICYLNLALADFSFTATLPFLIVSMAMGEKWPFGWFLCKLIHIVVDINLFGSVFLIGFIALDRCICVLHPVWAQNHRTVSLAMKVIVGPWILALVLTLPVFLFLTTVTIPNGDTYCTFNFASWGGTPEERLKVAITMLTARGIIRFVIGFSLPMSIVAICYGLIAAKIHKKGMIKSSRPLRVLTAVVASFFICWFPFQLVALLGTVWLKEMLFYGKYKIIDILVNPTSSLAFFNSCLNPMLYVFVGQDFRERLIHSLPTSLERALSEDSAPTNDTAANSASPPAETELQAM
Briefly: Measurement test of agonist activity on human FPRL1 (calcium mobilization in HEK293 cells transfected with human FPRL1 and Gα15). Particulars: Fluo-4 NW, molar concentration giving 50% maximum activation, read-out: Efficacy EC50. It counts as cell-based. An excerpt:
Measurement test of agonist activity on human FPRL1
(1-1) Construction of Human FPRL1 Expression Vector
Human FPRL (SEQ ID NO: 3) was amplified in a PCR reaction from cDNA derived from a monocytic leukemia cell line THP-1 (TIB-202, ATCC) as a template using a forward primer shown in SEQ ID NO: 1, a reverse primer shown in SEQ ID NO: 2, and KOD-plus-ver. 2 (KOD-211, TOYOBO CO., LTD.). […] 2 (LGK-201, TOYOBO CO., LTD.). The ligation product was transformed into DH5α (DNA-901, TOYOBO CO., LTD.), cultured on a 100 μg/mL kanamycin-containing LB medium, and purified with HiSpeed Plasmid Maxi Kit (12662, QIAGEN).
(1-2) Construction of Human Gα15 Expression Vector
2. The amplified PCR product and pCMV-script vector were digested with Hind III and XhoI, and the resultant digest was ligated with Ligation high ver. 2. The ligation product was transformed into DH5α, cultured on a 100 μg/mL kanamycin-containing LB medium, and purified with HiSpeed Plasmid Maxi Kit.
(2-1) Method for Culturing and Subculturing HEK293
HEK293 (JCRB9068, NIBIO) was cultured in an incubator at 5% CO2 and 37° C. using DMEM (11885-092, GIBCO) containing 10% FBS and 1cPenicillin-Streptomycin (15140-122, GIBCO).
(2-2) Introduction of Human FPRL1 and Gal5 Expression Vectors
The cells were inoculated in a Collagen Type 1 coated 6-well plate (4810-010, IWAKI) to 5×10^5 cells/2.5 mL/well and cultured overnight. On the next day, human FPRL1 and Gα15 expression vectors were introduced using Lipofectamine 2000 transfection reagent (11668-019, Life technologies). First, the human FPRL1 and Gal5 expression vectors were diluted with Opti-MEM I Reduced Serum Medium (31985-070, GIBCO) to 2 μg/250 μL/well and Lipofectamine 2000 transfection reagent was diluted with Opti-MEM I Reduced Serum Medium to be 4 μL/250 μL/well. The vectors and reagent were softly diffused, and incubated at room temperature for 5 minutes. The vector solution was mixed with Lipofectamine 2000 transfection reagent in equal amounts. In order to form a complex of the vectors and Lipofectamine 2000 transfection reagent, the mixture was incubated at room temperature for 20 minutes, and added at 500 μL/well to the medium of inoculated cells. The treated cells were cultured for 24 hours, inoculated in Poly-D-Lysine coated 96-well plate (356640, BD Biosciences) at a cell density of 7×10^4 cells/100 μL/well, and cultured for another 24 hours. The resultant cells were used in a measurement test of calcium mobilization in the cells.
(3) Evaluation of Agonist Activity on Human FPRL1 (Test of Calcium Mobilization in Cell)
An appropriate amount of each test compound was first weighed, and dissolved to 10^−2 M by addition of dimethyl sulfoxide (DMSO). […] The plate dispensed with compound solutions was set in Flexstation (Molecular Devices, LLC.) until measurement.
Subsequently, 10 mL of assay buffer and 100 μL of probenecid solution (dissolved by addition of 1 mL of assay buffer to a 250 mM stock) were sufficiently mixed and dissolved in Fluo-4 NW dye mix. The medium of cells inoculated on the previous day was removed, the dissolved Fluo-4 NW dye mix was added in an amount of 90 μL/well, and a reaction was caused in the dark at 37° C. for 45 minutes. The cells after the reaction and chips for addition of the compound were set in Flexstation, and variation in fluorescence intensity over time after addition of the compound was measured [amount of added compound=10 μL (final concentration: 10^−5 M to 10^−12 M), excitation wavelength: 485 nm, measured wavelength: 525 nm, 1.5 sec×54 read]. A value was calculated by subtracting a base value during addition of DMSO from the maximum value of relative fluorescence unit, and analyzed. All the measurement data were analyzed with Prism 4 that was a data analysis tool.
In general terms: Calcium assays in cells follow changes in intracellular calcium, usually with a dye or a luminescent sensor.

The subject of test [2] is neutrophilic infiltration in mouse lung. Briefly: Effect on lipopolysaccharide-induced neutrophilic infiltration in mouse lung (BAL fluid neutrophil count). It counts as in vivo. Particulars: oral, BALB/c male mouse, 30 min before LPS aerosol, BAL neutrophil count after 5 hours relative to control. The method, then:
Effect of lipopolysaccharide induction on neutrophilic infiltration in mouse lung A compound to be tested was orally administrated to a mouse (BALB/c, male), and after 30 minutes, the mouse was placed in a plastic container. Lipopolysaccharide (0.3 mg/mL) dissolved in physiological saline was aerosolized with an ultrasonic wave nebulizer (NE-U17, OMRON Corporation), and exposed to the mouse for 10 minutes. After 5 hours, the anesthetized mouse was sacrificed by exsanguination. […] This operation was repeated 3 times, to obtain a BAL fluid. The BAL fluid was centrifuged at 4° C. and ×200 g for 5 minutes, and the pellet was suspended in a physiological saline containing 0.1% BSA. The number of white blood cells was counted using Turks solution with a microscope, and the total white blood cell count was calculated. The white blood cells were fixed on a glass slide using Cytospin 3 (Thermo BioAnalysis Japan K. K.). The cells were stained with Diff-Quik (SYSMEX INTERNATIONAL REAGENTS CO., LTD.), and the number thereof was counted with a microscope, and the neutrophil ratio was calculated. The neutrophil ratio was multiplied by the total white blood cell count to calculate the total neutrophil count. An effect of the compound to be tested represents a percentage (%) of suppression ratio relative to the neutrophil count in a control.

In the case of `COc1ccc([C@@H]2COCC2NC(=O)Nc2ccc(F)cc2)cc1` (single isomer, unassigned; (+)) [Example 3-1 Isomer A, (+)-cis-1-(4-Fluorophenyl)-3-[4-(4-methoxyphenyl)tetrahydrofuran-3-yl]urea], the negative logarithm of the EC50 (pEC50) in test [1] was 9.21. The “Suppression Ratio” value in test [2] (dose 3 mg/kg) worked out at 80%.

Turning to `COc1ccc([C@@H]2COCC2NC(=O)Nc2ccc(Cl)cc2)cc1` (single isomer, unassigned; (+)) [Example 2-1 Isomer A, (+)-cis-1-(4-Chlorophenyl)-3-[4-(4-methoxyphenyl)tetrahydrofuran-3-yl]urea], in test [1], the pEC50 was 9.27. Further, in test [2] (dose 3 mg/kg), the “Suppression Ratio” value is 82%.

Turning to `COc1ccc([C@@H]2CCNC(=O)C2NC(=O)Nc2ccc(Cl)cc2)cc1` (mixture of isomers) [Example 1-11, (±)-trans-1-(4-chlorophenyl)-3-[4-(4-methoxyphenyl)-2-oxopiperidin-3-yl]urea], the pEC50 in test [1] is 9.96.

For the compound `COc1ccc([C@@H]2COC[C@@H]2NC(=O)Nc2ccc(F)c(F)c2)cc1` (racemic) [Example 1-5, (±)-cis-1-(3,4-difluorophenyl)-3-[4-(4-methoxyphenyl)tetrahydrofuran-3-yl]urea], the pEC50 in test [1] is 7.92.

With `COc1cc(F)c([C@@H]2Cn3nnnc3[C@H]2NC(=O)Nc2ccc(F)cc2)c(F)c1` (single isomer, unassigned) [Example 7-4, (−)-1-[(6R*,7S*)-6-(2,6-difluoro-4-methoxyphenyl)-6,7-dihydro-5H-pyrrolo[1,2-d]tetrazol-7-yl]-3-(4-fluorophenyl)urea], in test [1], the pEC50 was 9.44.

On to `O=C(Nc1ccc(F)cc1)N[C@@H]1c2nnnn2C[C@H]1c1cc2c(cc1F)OCC2` (single isomer, unassigned) [Example 7-5, (−)-1-[(6R*,7S*)-6-(6-fluoro-2,3-dihydrobenzofuran-5-yl)-6,7-dihydro-5H-pyrrolo[1,2-d]tetrazol-7-yl]-3-(4-fluorophenyl)urea], for which the pEC50 in test [1] was 8.60.

Regarding `COc1cc(F)c([C@@H]2CN3CCCN=C3[C@H]2NC(=O)Nc2ccc(F)cc2)c(F)c1` (single isomer, unassigned) [Example 7-6, (−)-1-[(7R*,8S*)-7-(2,6-difluoro-4-methoxyphenyl)-2,3,4,6,7,8-hexahydropyrrolo[1,2-a]pyrimidin-8-yl]-3-(4-fluorophenyl)urea], the pEC50 in test [1] was 9.01.

For `COc1ccc([C@@H]2CC(=O)N[C@H]2NC(=O)Nc2ccc(F)cc2)cc1` (racemic) [Example 6-1, (±)-trans-1-(4-Fluorophenyl)-3-[3-(4-methoxyphenyl)-5-oxopyrrolidin-2-yl]urea], the pEC50 in test [1] was 8.25.

In the case of `COc1ccc([C@@H]2Cn3nnnc3[C@H]2NC(=O)Nc2ccc(F)cc2)cc1` (single isomer, unassigned) [Example 7-3, (−)-1-(4-fluorophenyl)-3-[(6R*,7S*)-6-(4-methoxyphenyl)-6,7-dihydro-5H-pyrrolo[1,2-d]tetrazol-7-yl]urea], the pEC50 in test [1] is 9.22.

With `COc1cc(F)c([C@@H]2CN3CCON=C3[C@H]2NC(=O)Nc2ccc(F)cc2)c(F)c1` (relative stereo) [Example 7-7, 1-[(7R*,8S*)-7-(2,6-difluoro-4-methoxyphenyl)-4,6,7,8-tetrahydro-3H-pyrrolo[2,1-c][1,2,4]-oxadiazin-8-yl]-3-(4-fluorophenyl)urea], the pEC50 in test [1] was 10.70. In test [2] (dose 1 mg/kg), the “Suppression Ratio” value came to 97%.
